The results in this text go back to patent publication US20110251191A1, “USE OF SUBSTITUTED 2, 3-DIHYDROIMIDAZO[1,2-C]QUINAZOLINES FOR THE TREATMENT OF MYELOMA” (BAYER SCHERING PHARMA AKTIENGESELLSCHAFT, priority 2008, published 2011).

Holding throughout (assay type): cell-based
Experiment [1] concerns Molp2. Put plainly: proliferation assay (CellTiter-Glo), Molp2. The settings on record: MOLP-2; Molp2 cells, 72-hour drug exposure. The protocol:
(§1) In accordance with the invention, the compounds were assessed in a cell-based assay that measures the capacity of the compounds to inhibit tumor cell proliferation following a 72-hour drug exposure. Cell viability is determined using CellTiter-Glo® Luminescent Cell Viability Assay (Promega). Cells were plated at 2000-5000 cells/well (depending on the cell lines) in 100 μL growth medium on 96-well microtiterplate. For each cell line assayed, cells were plated onto a separate plate for determination of Luminescence at t=0 hour and t=72 hour time points. Following overnight incubation at 37° C., Luminescence values for the t=0 samples were determined. Dose plates for the t=72 hour time points were treated with compounds diluted into growth medium. Cells were then incubated for 72 hours at 37° C. Luminescence values for the t=72 hour samples were determined. For data analysis, briefly, t=0 values were subtracted from those determined for the t=72 hour time points, for both the treated and untreated samples. Percent differences in […] between drug-treated and control values were used to determine the percent inhibition of growth.

Experiment [2] deals with L363. In words: proliferation assay (CellTiter-Glo), L363. The settings on record: Homo sapiens, L-363; L363 cells, 72-hour drug exposure. Here is the method: as §1
A general note: In ATP-based viability assays light output follows the ATP content of the culture.

The test system of experiment [3] is Molm13. Put plainly: proliferation assay (CellTiter-Glo), Molm13. The settings on record: Homo sapiens, MOLM-13; Molm13 cells, 72-hour drug exposure. Here is the method:
as §1

In experiment [4] the test system is LP-1. Put plainly: proliferation assay (CellTiter-Glo), LP-1. The settings on record: LP-1 cells, 72-hour drug exposure. Here is the method:
as §1

Experiment [5] deals with multiple myeloma cell lines. Put plainly: proliferation assays with multiple myeloma cell lines (summary). The conditions noted are these: range over 9 multiple myeloma cell lines, 72-hour drug exposure; read-out: IC50s, proliferation of 9 multiple myeloma tested. The protocol:
as §1

In experiment [6] the test system is KMS-12-PE. Put plainly: proliferation assay (CellTiter-Glo), KMS-12-PE. The settings on record: Homo sapiens; KMS-12-PE cells, 72-hour drug exposure. Here is the method:
as §1

The test system of experiment [7] is RPMI 8226. In words: proliferation assay (CellTiter-Glo), RPMI 8226. The settings on record: Homo sapiens; RPMI 8226 cells, 72-hour drug exposure. The protocol: as §1
Experiment [8] has as its system OPM2. In words: proliferation assay (CellTiter-Glo), OPM2. The settings on record: Homo sapiens, OPM-2; OPM2 cells, 72-hour drug exposure. The protocol:
as §1

Experiment [9] deals with Molp8. Put plainly: proliferation assay (CellTiter-Glo), Molp8. The conditions noted are these: Homo sapiens, MOLP-8; Molp8 cells, 72-hour drug exposure. The protocol:
as §1

Experiment [10] relates to KMS-12-BM. In words: proliferation assay (CellTiter-Glo), KMS-12-BM. The settings on record: KMS-12-BM cells, 72-hour drug exposure. The protocol: as §1

pIC50: −log10 of the molar value.

For the compound `COc1c(OCCCN2CCOCC2)ccc2c1N=C(NC(=O)c1cnc(N)nc1)N1CCN=C21` [Compound A, 2-amino-N-[7-methoxy-8-(3-morpholin-4-ylpropoxy)-2,3-dihydroimidazo[1,2-c]quinazolin-5-yl]pyrimidine-5-carboxamide], the pIC50 in experiment [1] is 7.92; in experiment [2], 8.09; in experiment [3] it was 7.16; in experiment [4], 8.43; in experiment [5], 7.00 to 8.52; in experiment [6], 7.17. The pIC50 in [7] is 7.32; in [8], 7.04; in [9], 7.64; in experiment [10], 8.43.
